According to patent US20160067232A1, “METHODS FOR TREATING A STROKE-RELATED SENSORIMOTOR IMPAIRMENT USING AMINOPYRIDINES” (Acorda Therapeutics, Inc., priority 2011, published 2016):
Several values for one entry are separate records, joined by “and”; a condition that tells them apart may be missing. Identical values can stand only once.

Assays:
[1] = tested on: rats with middle cerebral artery occlusion (MCAO); test: Body swing test (% right swing), MCAO rats, double crossover study (Example 2); type: in vivo, Sprague Dawley rat; conditions: for Body Swing Test (% right Swing), individual animals: one value per rat
Method: 4-AP was evaluated for its ability to promote functional sensorimotor improvement following ischemic stroke in rats with stable motor deficits at times remote from their ischemic events. The animal model mimics the conditions in human ischemic stroke and is produced by middle cerebral artery occlusion (MCAO), which results in extensive infarction in cerebral cortex and striatum, including the cortical spinal tract (white matter).
In particular, the MCAO model in Sprague Dawley rats that was utilized in the experiments presented below mimics the conditions in human ischemic stroke. In this model, focal cerebral infarcts were made by permanent occlusion of the proximal right middle cerebral artery (MCA) using a modification of the method of Tamura et al. (No To Shinkei 1986; 38:747-51). Briefly, the temporalis muscle was bisected and reflected through an incision made midway between the eye and the ear canal. The proximal MCA was exposed through a subtemporal craniectomy without removing the zygomatic arch and without transecting the facial nerve.
Dosing and Treatment: Rats were treated in accordance with the dosing schedule shown in Tables 2A, 2B, 3 and FIG. 2, with each Phase being a two week period of time. A solution of 4-AP was used in this experiment. Dosing was started at 4 weeks after ischemic event. 4-aminopyridine was dissolved in water for injection (WFI, Cellgro) and sterile filtered. Final concentrations of 0.315 mg/mL or 1.0 mg/mL of 4-aminopyridine were delivered at 2 mL/kg by gastric gavage, resulting in final doses of 0.63 mg/kg and 2 mg/kg respectively. Vehicle control treatment was WFI delivered at 2 mL/kg by gastric gavage. This study was divided into three treatment phases (1-3) with each randomized cohort of animals receiving a different dose level during each of the treatment phases. Starting on day 30 after MCAO (Day 30, start of phase 1), the animals received gavage dosing of solutions (2 mL/kg) approximately 12 hours apart, for a total of five doses. The same schedule was repeated with different treatment on Day 44 and Day 58 for phase 2 and 3 of the study, respectively. Animals were not treated during the 10 days between phases (washout period).
Treatment groups: Dosing was started 4 weeks after MCAO surgery. During these 4 weeks, weekly behavioral assessments, as defined below, were performed. Two dose levels of 4-AP plus vehicle control were assessed, with treatment starting at 4 weeks after ischemic event. All dosing was via gastric gavage, volume not to exceed 2 mL/kg. Animals were given the first dose and behavioral assessments were performed starting 60 minutes after dosing. Animals then received the second dose that day at the appropriate time and b.i.d (preferably every 12 hours) thereafter for 2 more days (3 total days of dosing, 5 total doses). One hour after the 5th dose, animals were subjected to behavioral assessments as defined below. Following the final behavioral assessment, drug was withdrawn for 10 or 11 days, behavior was re-assessed, and then animals were re-challenged with a cross-over treatment (Phase 2 of Table 2B) as described in Tables 2A, 2B and 3, followed by the same behavioral testing and dosing regimen. This cross-over was repeated one more time as well (Phase 3 of Table 2B) (see FIG. 2).
Behavioral test details: Behavioral evaluations were done by evaluators blinded to treatment assignment. Blinded assessments of sensorimotor function were performed just prior to MCAO surgery, 24 hours after MCAO surgery and weekly thereafter until the first phase of dosing using limb placing and body swing behavioral tests. As described above, behavioral assessments were timed exactly with dosing times. Animals were tested one hour after the 1st and 5th doses of each phase (i.e., Days 30 and 32 of the first phase, Days 44 and 46 of the second phase; and Days 58 and 60 of the third phase); animals were also tested during the washout periods on Days 42 and 56. […]

[2] = tested on: rats with middle cerebral artery occlusion (MCAO); test: Cylinder test, overall asymmetry (%), MCAO rats (Example 2); type: in vivo, Sprague Dawley rat
Method: Dosing and Treatment: Rats were treated in accordance with the dosing schedule shown in Tables 2A, 2B, 3 and FIG. 2, with each Phase being a two week period of time. A solution of 4-AP was used in this experiment. Dosing was started at 4 weeks after ischemic event. 4-aminopyridine was dissolved in water for injection (WFI, Cellgro) and sterile filtered. […] Vehicle control treatment was WFI delivered at 2 mL/kg by gastric gavage. […] Starting on day 30 after MCAO (Day 30, start of phase 1), the animals received gavage dosing of solutions (2 mL/kg) approximately 12 hours apart, for a total of five doses. The same schedule was repeated with different treatment on Day 44 and Day 58 for phase 2 and 3 of the study, respectively. Animals were not treated during the 10 days between phases (washout period). Treatment groups: Dosing was started 4 weeks after MCAO surgery. During these 4 weeks, weekly behavioral assessments, as defined below, were performed. Two dose levels of 4-AP plus vehicle control were assessed, with treatment starting at 4 weeks after ischemic event. […] Animals were given the first dose and behavioral assessments were performed starting 60 minutes after dosing. Animals then received the second dose that day at the appropriate time and b.i.d (preferably every 12 hours) thereafter for 2 more days (3 total days of dosing, 5 total doses). One hour after the 5th dose, animals were subjected to behavioral assessments as defined below. Following the final behavioral assessment, drug was withdrawn for 10 or 11 days, behavior was re-assessed, and then animals were re-challenged with a cross-over treatment (Phase 2 of Table 2B) as described in Tables 2A, 2B and 3, followed by the same behavioral testing and dosing regimen. This cross-over was repeated one more time as well (Phase 3 of Table 2B) (see FIG. 2). Cylinder Test: Evaluation was performed at Day −1 (pre-operation), Day 7, Day 21, Day 30, Day 32, Day 44, Day 46, Day 58, Day 60. This test assessed limb use asymmetry. Rats were placed in a transparent cylinder (20 cm in diameter and 30 cm in height) for 3-6 minutes. A mirror was placed behind the cylinder to determine forelimb movements when animal was turned away from the camera. […] Simultaneous use of both left and right forelimbs while contacting the wall during a full rear was also scored. A total number of 20 forelimb placings were counted during a trial. Data was expressed in terms of percent use of the non-impaired and or impaired forelimb relative to the total number of limb use observations for wall movements.

With Nc1ccncc1 [4-aminopyridine] the “Body swing function, low dose compared to vehicle, second mixed model” value ([1]; 0.63 mg/kg b.i.d. p.o., level 0.05) was “didn't show the statistical significant improvement”, the “Body swing function, low dose compared to vehicle, first mixed model” value ([1]; 0.63 mg/kg b.i.d. p.o., p=0.033) was “significantly improved the body swing function” and the “Body swing function, high dose compared to vehicle” value ([1]; 2 mg/kg b.i.d. p.o., first mixed model p=0.0131, second p<0.0001) was “significantly improved the body swing function”. For the same compound, the “Body Swing Test (% right Swing), individual animals” value (“Body Swing Test (% right Swing)” for short) ([1]; Group 1 (sequence hlv), D30 after MCAO, phase 1, high dose) was 33.33% and 40.00% (2×) and 30.00%, the “Body Swing Test (% right Swing)” value ([1]; Group 1 (sequence hlv), D32 after MCAO, phase 1, high dose) was 50.00% (3×) and 40.00% (2×) and 30.00% and the “Body Swing Test (% right Swing)” value ([1]; Group 1 (sequence hlv), D44 after MCAO, phase 2, low dose) was 33.33% and 50.00% and 40.00% (2×) and 30.00% (2×). For the same compound, the “Body Swing Test (% right Swing)” value ([1]; Group 1 (sequence hlv), D46 after MCAO, phase 2, low dose) was 33.33% and 30.00% and 20.00% (2×) and 40.00%, the “Body Swing Test (% right Swing)” value ([1]; Group 2 (sequence lvh), D30 after MCAO, phase 1, low dose) was 20.00% and 40.00% and 30.00% (2×) and the “Body Swing Test (% right Swing)” value ([1]; Group 2 (sequence lvh), D32 after MCAO, phase 1, low dose) was 40.00% and 30.00% (2×). The “Body Swing Test (% right Swing)” value ([1]; Group 2 (sequence lvh), D58 after MCAO, phase 3, high dose) was 40.00% and 50.00% (2×), the “Body Swing Test (% right Swing)” value ([1]; Group 2 (sequence lvh), D60 after MCAO, phase 3, high dose) was 40.00% (5×) and 50.00% (4×) and the “Body Swing Test (% right Swing)” value ([1]; Group 3 (sequence vhl), D44 after MCAO, phase 2, high dose) was 40.00% (3×) and 43.33% (2×) and 46.67% (2×) and 53.33% and 13.33% and 36.67% and 50.00% (2×) and 23.33% and 33.33%. The “Body Swing Test (% right Swing)” value ([1]; Group 3 (sequence vhl), D46 after MCAO, phase 2, high dose) was 40.00% (3×) and 43.33% (4×) and 50.00% and 30.00% (2×) and 53.33% (3×) and 20.00% and 23.33%, the “Body Swing Test (% right Swing)” value ([1]; Group 3 (sequence vhl), D58 after MCAO, phase 3, low dose) was 30.00% (3×) and 46.67% (3×) and 40.00% (2×) and 20.00% (3×) and 53.33% and 33.33% and the “Body Swing Test (% right Swing)” value ([1]; Group 3 (sequence vhl), D60 after MCAO, phase 3, low dose) was 30.00% (2×) and 43.33% (2×) and 36.67% (4×) and 50.00% (2×) and 26.67% and 23.33%. The “Body swing scores, Day 56 vs. Day 60” value ([1]; Group 3, third treatment phase, low dose 0.63 mg/kg) was “unchanged”, the “Effect on global body control, body swing test (FIG. 5)” value ([1]; low or high dose, reversible and dose-dependent) was “effective to improve global body control” and the “Cylinder Test Score (Overall Asymmetry (%)) Group 2, D30” value ([2]; Group 2, D30, treatment phase 1 (low-dose 4-AP), individual animals and Mean (N=15), listed as 4-AP) was 0.00% and 75.00% and 23.33% and 20.00% and 6.90%. The “Cylinder Test Score (Overall Asymmetry (%)) Group 2, D32” value ([2]; Group 2, D32, treatment phase 1 (low-dose 4-AP), individual animals and Mean (N=15), listed as 4-AP) was 33.33% and 16.00% and 20.00% and 50.00% and 0.00%, the “Cylinder Test Score (Overall Asymmetry (%)) Group 2, D58” value ([2]; Group 2, D58, treatment phase 3 (high-dose 4-AP), individual animals and Mean (N=12), listed as 4-AP) was 50.00% and 30.00% and 88.00% and 33.33% and the “Cylinder Test Score (Overall Asymmetry (%)) Group 2, D60” value ([2]; Group 2, D60, treatment phase 3 (high-dose 4-AP), individual animals and Mean (N=14), listed as 4-AP) was 64.00% and 20.00% and 10.00% and 0.00% (3×) and −100.00% (2×). For the same compound, the “Cylinder Test Score (Overall Asymmetry (%)) Group 3, D44” value ([2]; Group 3, D44, treatment phase 2 (high-dose 4-AP), individual animals and Mean (N=13), listed as 4-AP) was 40.00% and 20.00% and 100.00% and 0.00%, the “Cylinder Test Score (Overall Asymmetry (%)) Group 3, D46” value ([2]; Group 3, D46, treatment phase 2 (high-dose 4-AP), individual animals and Mean (N=13), listed as 4-AP) was 50.00% and −60.00% and 0.00% and 6.90% and the “Cylinder Test Score (Overall Asymmetry (%)) Group 3, D58” value ([2]; Group 3, D58, treatment phase 3 (low-dose 4-AP), individual animals and Mean (N=15), listed as 4-AP) was 0.00% (2×) and 5.00%. The “Cylinder Test Score (Overall Asymmetry (%)) Group 3, D60” value ([2]; Group 3, D60, treatment phase 3 (low-dose 4-AP), individual animals and Mean (N=15), listed as 4-AP) was −25.00% and 0.00% (2×) and 16.00% and the “Effect on body symmetry and coordination, cylinder test (FIG. 7)” value ([2]; reversible and dose-dependent) was “effective to improve body symmetry and coordination”.
